Test results taken from patent publication US6534522B2, “Subtype-selective NMDA receptor ligands and the use thereof” (Warner-Lambert Company, priority 1995, dated 2003).
pIC50: −log10 of the molar value. Counter-ions that a name gives are not always drawn.

Key:
NR1A/2A NMDA receptor = NR1A/2A NMDA receptor (Rattus norvegicus, UniProt P35439+Q00959); experiment: Xenopus oocyte expression system, two-electrode voltage clamp, NR1A/2A; format: cell-based; conditions: cloned NR1A/2A subunits expressed in Xenopus oocytes; inhibition of agonist-evoked membrane current; read-out: 1A/2A IC50
Text: (§1) Electrophysiological assays may be utilized to characterize the actions of potential subtype-selective ligands at NMDA receptors expressed in Xenopus oocytes. The ligand may be assayed at the different subunit combinations of cloned rat NMDA receptors corresponding to the four putative NMDA receptor subtypes (Moriyoshi et al., Nature (Lond.) 354:31-37 (1991); Monyer et al., Science (Washington, D.C.) 256:1217-1221 (1992); Kutsuwada et al., Nature (Lond.) 358:36-41 (1992); Sugihara et al., Biochem. Biophys. Res. Comm. 185:826-832 (1992)).
(§2) Using fixed saturating concentrations of agonists (glutamate 100 μM, glycine 1-10 μM depending on subunit combination), the inhibitory potency of a putative subtype-selective ligand may be assayed at the NMDA receptors assembled from NR1A/2A, NR1A/2B, NR1A/2C and NR1A/2D subunit combinations.
(§3) The Xenopus oocyte expression system. Mature female Xenopus laevis were anaesthetized (20-40 min) using 0.15% 3-aminobenzoic acid ethyl ester (MS-222) and 2-4 ovarian lobes were surgically removed. Oocytes at developmental stages IV-VI (Dumont, J. N., J. Morphol. 136:153-180 (1972)), were dissected from the ovary still surrounded by enveloping ovarian tissues. Follicle-enclosed oocytes were micro-injected with 1:1 mixtures of cRNA:NR1A+NR2A, 2B, 2C or 2D; injecting ˜2, 5, or 20 ng of RNA encoding each receptor subunit. NR1A encoding cRNA was injected alone at ˜20 ng. Oocytes were stored in Barth's medium containing (in mM): NaCl, 88; KCl, 1; CaCl2, 0.41; Ca(NO3)2, 0.33; MgSO4, 0.82; NaHCO3, 2.4; HEPES 5; pH 7.4, with 0.1 mg/mL gentamycin sulphate. While oocytes were still surrounded by enveloping ovarian tissues the Barth's medium was supplemented with 0.1% bovine serum. Oocytes were defolliculated 1-2 days following injections by treatment with collagenase (0.5 mg/mL Sigma Type I for 0.5-1 hr) (Miledi and Woodward, J. Physiol. (Lond.) 416:601-621 (1989)) and subsequently stored in serum-free medium.
(§4) Electrical recordings were made using a conventional two-electrode voltage clamp (Dagan TEV-200) over periods ranging between 3-21 days following injection. Oocytes were placed in a 0.1 mL recording chamber continuously perfused (5-15 mL min^−1) with frog Ringer's solution containing (in mM): NaCl, 115; KCl, 2; CaCl2, 1.8; HEPES, 5; pH 7.4. Drugs were applied by bath perfusion. When using the more rapid flow rates, half-times for mid-chamber solution changes were between 2-3 sec, however, exchange rates for drug solutions at the oocyte surface (i.e. beneath the vitelline envelope and among the tangles of microvilli) were probably considerably longer (Woodward et al., Mol. Pharmacol. 41:89-103 (1992)). Zero-Ca^2+/Ba^2+ Ringer had the composition (in mM): NaCl, 115; KCl, 2; BaCl2, 1.8; HEPES, 5; pH 7.4. Intraoocyte injections were made by pneumatic pressure-pulse ejection from micropipettes (Miledi and Parker, J. Physiol. (Lond.) 357:173-183 (1984)). Injection solutions of EGTA (40-400 mM) and BAPTA (50-500 mM) were made up in H2O, pH adjusted to 7.4 with KOH or HCl, and filtered to minimize plugging (Acrodisc-13, […]). Pressure was set between 200-400 kPa. The volume of injections was regulated by adjusting the time of pulses (0.1-1 sec) and was estimated by measuring the diameters of ejected droplets.
(§5) Concentration-inhibition curves were fit with equation 2.
(§6) I/Icontrol=1/(1+([antagonist]/10^−pIC50)^n) Eq. 2
(§7) in which Icontrol is the current evoked by agonists alone, pIC50=−log IC50, […] is the concentration of antagonist that produces half maximal inhibition, and n is the slope factor. For incomplete curves analysis by fitting was unreliable and IC50 values were calculated by simple regression over linear portions of the curves (Origin: Microcal Software).
(§8) Drugs were initially dissolved at concentrations of 10-100 mM in DMSO. Dilutions were then made to generate a series of DMSO stock solutions over the range 10 μM to 100 mM. Working solutions were made by 1000-3000 fold dilution of stocks into Ringer. […]

NR1A/2C NMDA receptor = NR1A/2C NMDA receptor (Rattus norvegicus, UniProt P35439+Q00961); experiment: Xenopus oocyte expression system, two-electrode voltage clamp, NR1A/2C; format: cell-based; conditions: cloned NR1A/2C subunits expressed in Xenopus oocytes; inhibition of agonist-evoked membrane current; read-out: 1A/2C IC50
Text: as §1, §2, §3, §4, §5, §6, §7, §8

NR1A/2B NMDA receptor = NR1A/2B NMDA receptor (Rattus norvegicus, UniProt P35439+Q00960); experiment: Xenopus oocyte expression system, two-electrode voltage clamp, NR1A/2B; format: cell-based; conditions: cloned NR1A/2B subunits expressed in Xenopus oocytes; inhibition of agonist-evoked membrane current; read-out: 1A/2B IC50
Text: as §1, §2, §3, §4, §5, §6, §7, §8

Chain of NR1A/2A NMDA receptor (Q00959 20-1464 limits assumed, other chains not shown): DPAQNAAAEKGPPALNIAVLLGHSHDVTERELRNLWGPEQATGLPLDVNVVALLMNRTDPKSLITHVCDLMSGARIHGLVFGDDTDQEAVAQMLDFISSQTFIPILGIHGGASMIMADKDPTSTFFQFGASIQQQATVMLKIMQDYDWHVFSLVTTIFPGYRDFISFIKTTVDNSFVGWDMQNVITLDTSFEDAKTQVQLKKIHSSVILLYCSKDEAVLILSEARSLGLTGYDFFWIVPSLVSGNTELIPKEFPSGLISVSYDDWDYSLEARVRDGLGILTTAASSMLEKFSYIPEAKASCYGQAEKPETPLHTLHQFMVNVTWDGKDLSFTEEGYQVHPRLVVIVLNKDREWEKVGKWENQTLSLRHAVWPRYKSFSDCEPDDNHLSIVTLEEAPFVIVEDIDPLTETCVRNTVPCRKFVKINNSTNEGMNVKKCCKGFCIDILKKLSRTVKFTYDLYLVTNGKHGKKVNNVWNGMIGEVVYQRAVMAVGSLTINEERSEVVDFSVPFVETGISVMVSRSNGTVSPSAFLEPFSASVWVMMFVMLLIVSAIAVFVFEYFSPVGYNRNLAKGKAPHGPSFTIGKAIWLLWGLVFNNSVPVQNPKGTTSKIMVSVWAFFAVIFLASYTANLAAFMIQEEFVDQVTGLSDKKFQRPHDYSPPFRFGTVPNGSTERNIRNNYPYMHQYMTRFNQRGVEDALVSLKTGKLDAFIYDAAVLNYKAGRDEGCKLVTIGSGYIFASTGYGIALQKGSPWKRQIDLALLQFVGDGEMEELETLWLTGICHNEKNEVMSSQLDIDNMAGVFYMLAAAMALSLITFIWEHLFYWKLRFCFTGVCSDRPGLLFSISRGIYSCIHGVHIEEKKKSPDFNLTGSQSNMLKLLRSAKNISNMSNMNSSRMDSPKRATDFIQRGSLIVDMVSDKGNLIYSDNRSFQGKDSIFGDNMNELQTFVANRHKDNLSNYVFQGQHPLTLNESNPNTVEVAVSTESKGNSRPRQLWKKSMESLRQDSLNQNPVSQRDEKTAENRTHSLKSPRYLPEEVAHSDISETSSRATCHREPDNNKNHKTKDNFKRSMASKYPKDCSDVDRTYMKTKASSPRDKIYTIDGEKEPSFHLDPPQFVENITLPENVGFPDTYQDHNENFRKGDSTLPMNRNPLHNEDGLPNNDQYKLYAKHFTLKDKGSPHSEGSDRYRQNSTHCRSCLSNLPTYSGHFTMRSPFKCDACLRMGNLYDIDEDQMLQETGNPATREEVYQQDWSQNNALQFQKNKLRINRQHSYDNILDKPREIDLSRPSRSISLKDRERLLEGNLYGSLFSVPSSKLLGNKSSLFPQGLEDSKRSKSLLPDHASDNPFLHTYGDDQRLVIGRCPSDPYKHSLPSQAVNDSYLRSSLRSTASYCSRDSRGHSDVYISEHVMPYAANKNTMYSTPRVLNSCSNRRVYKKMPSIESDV
Chain of NR1A/2B NMDA receptor (Q00960 27-1482, other chains not shown): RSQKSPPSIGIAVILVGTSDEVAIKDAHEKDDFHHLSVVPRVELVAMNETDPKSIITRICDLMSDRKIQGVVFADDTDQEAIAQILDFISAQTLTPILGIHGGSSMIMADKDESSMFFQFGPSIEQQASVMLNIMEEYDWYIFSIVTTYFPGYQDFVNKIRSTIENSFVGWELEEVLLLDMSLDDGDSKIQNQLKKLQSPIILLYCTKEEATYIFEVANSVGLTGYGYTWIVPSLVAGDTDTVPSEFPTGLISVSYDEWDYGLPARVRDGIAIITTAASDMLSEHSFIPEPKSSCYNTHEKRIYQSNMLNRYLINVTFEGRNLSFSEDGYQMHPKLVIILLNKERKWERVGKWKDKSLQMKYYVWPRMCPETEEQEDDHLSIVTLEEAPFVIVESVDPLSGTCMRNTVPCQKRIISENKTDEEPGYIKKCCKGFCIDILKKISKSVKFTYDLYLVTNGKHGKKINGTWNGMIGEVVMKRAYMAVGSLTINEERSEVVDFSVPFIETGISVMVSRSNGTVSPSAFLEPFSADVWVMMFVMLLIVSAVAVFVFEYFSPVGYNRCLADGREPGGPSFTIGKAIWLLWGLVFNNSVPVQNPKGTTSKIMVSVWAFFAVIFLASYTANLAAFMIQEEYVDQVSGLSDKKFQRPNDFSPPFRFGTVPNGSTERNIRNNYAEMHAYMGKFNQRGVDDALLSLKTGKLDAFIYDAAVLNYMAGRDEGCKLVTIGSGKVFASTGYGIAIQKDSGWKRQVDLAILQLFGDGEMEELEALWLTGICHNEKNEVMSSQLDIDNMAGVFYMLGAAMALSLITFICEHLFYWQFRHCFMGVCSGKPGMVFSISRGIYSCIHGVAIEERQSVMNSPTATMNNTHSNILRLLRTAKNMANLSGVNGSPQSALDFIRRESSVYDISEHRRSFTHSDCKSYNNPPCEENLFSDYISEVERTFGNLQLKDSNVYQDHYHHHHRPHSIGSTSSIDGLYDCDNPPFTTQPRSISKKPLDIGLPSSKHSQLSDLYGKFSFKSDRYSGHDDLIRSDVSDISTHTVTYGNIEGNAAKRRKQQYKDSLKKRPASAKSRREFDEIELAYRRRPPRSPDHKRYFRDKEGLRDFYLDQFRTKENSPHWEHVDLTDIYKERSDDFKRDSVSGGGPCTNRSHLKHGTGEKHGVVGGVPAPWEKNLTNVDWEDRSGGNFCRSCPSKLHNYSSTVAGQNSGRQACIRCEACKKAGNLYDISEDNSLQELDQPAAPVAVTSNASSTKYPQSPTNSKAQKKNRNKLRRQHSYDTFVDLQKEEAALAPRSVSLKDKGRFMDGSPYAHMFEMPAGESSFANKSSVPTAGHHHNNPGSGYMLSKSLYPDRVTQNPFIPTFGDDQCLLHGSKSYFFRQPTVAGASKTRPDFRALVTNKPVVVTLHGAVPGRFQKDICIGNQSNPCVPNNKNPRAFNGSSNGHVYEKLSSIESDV
Chain of NR1A/2C NMDA receptor (Q00961 20-1237, other chains not shown): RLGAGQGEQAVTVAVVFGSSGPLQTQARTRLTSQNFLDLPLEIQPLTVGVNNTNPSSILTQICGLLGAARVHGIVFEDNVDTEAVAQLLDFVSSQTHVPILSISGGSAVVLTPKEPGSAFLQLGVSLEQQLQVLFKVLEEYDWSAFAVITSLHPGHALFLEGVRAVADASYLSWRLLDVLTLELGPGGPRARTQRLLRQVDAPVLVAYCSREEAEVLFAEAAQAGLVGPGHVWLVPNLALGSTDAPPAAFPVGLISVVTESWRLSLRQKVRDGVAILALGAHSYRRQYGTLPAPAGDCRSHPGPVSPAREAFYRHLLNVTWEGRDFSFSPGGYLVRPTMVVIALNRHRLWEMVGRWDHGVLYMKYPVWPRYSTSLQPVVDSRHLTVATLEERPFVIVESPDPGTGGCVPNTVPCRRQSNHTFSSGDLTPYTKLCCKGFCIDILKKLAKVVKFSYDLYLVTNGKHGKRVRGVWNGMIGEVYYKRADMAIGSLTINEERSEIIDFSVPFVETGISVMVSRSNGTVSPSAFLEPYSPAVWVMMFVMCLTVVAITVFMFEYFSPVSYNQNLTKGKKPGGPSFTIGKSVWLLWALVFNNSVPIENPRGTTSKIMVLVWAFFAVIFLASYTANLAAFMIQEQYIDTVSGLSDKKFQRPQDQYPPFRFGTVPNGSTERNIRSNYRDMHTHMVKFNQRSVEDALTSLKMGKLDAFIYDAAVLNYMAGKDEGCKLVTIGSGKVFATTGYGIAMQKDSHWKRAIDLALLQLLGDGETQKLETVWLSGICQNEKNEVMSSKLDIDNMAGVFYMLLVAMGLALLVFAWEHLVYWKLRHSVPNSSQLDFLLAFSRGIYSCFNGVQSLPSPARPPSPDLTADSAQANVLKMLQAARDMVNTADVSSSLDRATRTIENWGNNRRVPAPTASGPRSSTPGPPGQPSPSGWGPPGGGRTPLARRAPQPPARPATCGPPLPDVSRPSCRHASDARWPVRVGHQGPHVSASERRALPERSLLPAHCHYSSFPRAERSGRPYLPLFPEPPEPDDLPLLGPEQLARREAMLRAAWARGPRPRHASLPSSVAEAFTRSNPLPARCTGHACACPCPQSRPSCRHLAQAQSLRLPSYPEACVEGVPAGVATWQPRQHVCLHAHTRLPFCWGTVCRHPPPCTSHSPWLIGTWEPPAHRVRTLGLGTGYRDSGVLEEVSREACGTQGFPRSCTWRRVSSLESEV

Row | Compound | melting point | pIC50 (NR1A/2A NMDA receptor) | pIC50 (NR1A/2C NMDA receptor) | pIC50 (NR1A/2B NMDA receptor)
1 | C[C@@H](CO)CN1CCC(Cc2ccc(F)cc2)CC1 (as salt: hydrochloride) [Ex. 92, (R)-4-(4-Fluorobenzyl)-1-(3-hydroxy-2-methylpropyl) piperidine hydrochloride] | 128 to 130 °C | – | – | –
2 | COc1ccc(CC2CCN(CCCO)CC2)cc1 (as salt: hydrobromid) [Ex. 93, 1-(3-Hydroxypropyl)-4-(4-methoxybenzyl) piperidine hydrobromide] | 129 to 131 °C | – | – | –
3 | Cl.O=C(c1ccc(F)cc1)C1CCN(CCOc2ccc(F)cc2)CC1 | 138 to 141 °C | – | – | –
4 | OC1(Cc2ccccc2)CCN(CCCc2ccccc2)CC1 (as salt: hydrochloride) [Ex. 16, 4-Benzyl-4-hydroxy-1-(3-phenylpropyl)piperidine] | 156 to 157 °C | – | – | –
5 | CC(O)CCN1CCC(Cc2ccc(N)cc2)CC1 (centres unmarked) (as salt: hydrochloride) [Ex. 105, 4-(4-aminobenzyl)-1-(3-hydroxy-butyl) piperidine hydrochloride] | 155 to 160 °C | – | – | –
6 | Br.Clc1ccc(CCN2CCCC(Cc3ccccc3)C2)cc1 (centres unmarked) | 143 to 145 °C | – | – | –
7 | c1ccc(OCCN2CCc3ccccc3C2)cc1 (as salt: hydrochloride) [Ex. 18, N-(2-Phenoxyethyl)-1,2,3,4-tetrahydroisoquinoline] | 181 to 182 °C | – | – | –
8 | OCCCN1CCC(Cc2ccc(Cl)cc2)CC1 (as salt: hydrobromid) [Ex. 89, 4-(4-Chlorobenzyl)-1-(3-hydroxypropyl) piperidine hydrobromide] | 139.5 to 140 °C | – | – | –
9 | O=C(c1ccc(F)cc1)C1CCN(CCCO)CC1 [Example 77, 4-(p-fluorobenzoyl)-1-(3-hydroxypropyl)piperidine] | 106 to 108 °C | – | – | –
10 | CC(O)CCN1CCC(Cc2ccc(F)cc2)CC1 (centres unmarked) (as salt: hydrochloride) [Ex. 91, 4-(4-Fluorobenzyl)-1-(3-hydroxybutyl) piperidine hydrochloride] | 99 to 103 °C | – | – | –
11 | Clc1ccc(CC2CCN(C3CCc4ccccc4C3)CC2)cc1 (centres unmarked) (as salt: hydrochloride) [Example 98, 4-(4-Chlorobenzyl)-1-(tetralin-2-yl)piperidine hydrochloride] | 243 to 245 °C (dec.) | – | – | –
12 | OCCCN1CCC(Cc2ccc(F)cc2)CC1 (as salt: hydrobromid) [Ex. 90, 4-(4-Fluorobenzyl)-1-(3-hydroxypropyl) piperidine hydrobromide] | 108 to 110 °C | – | – | –
13 | Br.FC(F)(F)c1cccc(CCN2CCCC(Cc3ccccc3)C2)c1 (centres unmarked) | 152 to 154 °C | – | – | –
14 | Br.c1ccc(CCCCN2CCCC(Cc3ccccc3)C2)cc1 (centres unmarked) | 105 to 107 °C | – | – | –
15 | COc1ccc(C(=O)C2CCN(CCCO)CC2)cc1 (as salt: hydrobromid) [Example 78, 1-(3-Hydroxypropyl)-4-(4-methoxybenzoyl)piperidine] | 148 to 151 °C | – | – | –
16 | O=C(c1ccccc1)C1CCN(CCOc2ccccc2)CC1 (as salt: hydrochloride) [Ex. 27, 4-Benzoyl-1-(2-phenoxyethyl)piperidine] | 161 to 162 °C | – | – | –
17 | O=c1[nH]c2ccc(OCCCN3CCc4ccccc4C3)cc2[nH]1 [Ex. 108, N-(3-(2-oxobenzimidazol-5-oxy)propyl)-1,2,3,4-tetrahydroisoquinoline] | – | 4.62 | < 3.52 | 5.12
18 | c1ccc(OCCCN2CCc3ccccc3C2)cc1 [Ex. 19, N-(3-Phenoxypropyl)-1,2,3,4-tetrahydroisoquinoline] | – | 4.12 | 3.56 | 5.00

Row | Compound | melting point | pIC50 (NR1A/2A NMDA receptor) | pIC50 (NR1A/2C NMDA receptor) | pIC50 (NR1A/2B NMDA receptor)
19 | O=c1[nH]c2ccc(OCCN3CCc4ccccc4C3)cc2[nH]1 [Ex. 109, N-(2-(2-oxobenzimidazol-5-oxy)ethyl)-1,2,3,4-tetrahydroisoquinoline] | – | 3.72 | < 3.52 | 3.85
20 | Br.COc1ccc(CCN2CCCC(Cc3ccccc3)C2)cc1 (centres unmarked) | 74 to 78 °C | – | – | –
21 | OCCCCN1CCC(Cc2ccccc2)CC1 (as salt: hydrobromid) [Ex. 86, 4-Benzyl-1-(4-hydroxybutyl)piperidine hydrobromide] | 129 to 130 °C | – | – | –
22 | O=C(c1ccccc1)C1CCN(CCOc2ccccc2)CC1 [Ex. 27, 4-Benzoyl-1-(2-phenoxyethyl)piperidine] | – | < 3.52 | < 3.52 | 4.30
23 | Fc1cccc(C[P+](c2ccccc2)(c2ccccc2)c2ccccc2)c1 [Ex. 8, m-Fluorobenzyltriphenylphosphonium bromide] | – | < 3.52 | < 3.52 | 4.19
24 | NNC(=O)CCCCN1CCC(Cc2ccccc2)CC1 [Ex. 3, 4-Benzylpiperidylpentahydrazide] | – | < 3.52 | < 3.52 | 5.40
25 | Br.c1ccc(CCN2CCCC(Cc3ccccc3)C2)cc1 (centres unmarked) | 137 to 142 °C | – | – | –
26 | NCCCN1CCC(Cc2ccccc2)CC1 [Ex. 47, 4-Benzyl-1-(3-aminopropyl) piperidine] | – | 3.57 | < 3.52 | 4.40
27 | O=C(c1ccccc1O)C1CCN(CCCO)CC1 [Example 79, 4-(2-Hydroxybenzoyl)-1-(3-hydroxypropyl)piperidine] | 77 to 80 °C | – | – | –
28 | c1ccc(OCCCN2CCc3ccccc3C2)cc1 (as salt: hydrochloride) [Ex. 19, N-(3-Phenoxypropyl)-1,2,3,4-tetrahydroisoquinoline] | 194 to 195 °C | – | – | –
29 | Br.c1ccc(CC2CCCN(CCCOc3ccccc3)C2)cc1 (centres unmarked) | 148 to 149 °C | – | – | –
30 | OCCCN1CCC(O)(Cc2ccccc2)CC1 [Ex. 87, 4-Benzyl-4-hydroxy-1-(3-hydroxypropyl)piperidine] | – | < 3.52 | < 3.52 | 5.15
31 | OCCCN1CCC(Cc2ccccc2)CC1 (as salt: hydrobromid) [Ex. 83, 4-Benzyl-1-(3-hydroxypropyl)piperidine hydrobromide] | 122 to 124 °C | – | – | –
32 | C[C@@H](CO)CN1CCC(Cc2ccc(F)cc2)CC1 [Ex. 92, (R)-4-(4-Fluorobenzyl)-1-(3-hydroxy-2-methylpropyl) piperidine hydrochloride] | – | < 3.52 | < 3.52 | 5.10
33 | OCCCN1CCC(Cc2ccc(F)cc2)CC1 [Ex. 90, 4-(4-Fluorobenzyl)-1-(3-hydroxypropyl) piperidine hydrobromide] | – | < 3.52 | < 3.52 | 5.89
34 | Br.c1ccc(CC2CCCN(CCOc3ccccc3)C2)cc1 (centres unmarked) | 93 to 94 °C | – | – | –
35 | O=c1[nH]c2ccc(OCCCN3CCc4ccccc4C3)cc2[nH]1 (as salt: hydrochloride) [Ex. 108, N-(3-(2-oxobenzimidazol-5-oxy)propyl)-1,2,3,4-tetrahydroisoquinoline] | 210 to 215 °C (dec.) | – | – | –
36 | O=C(CCCN1CCc2c([nH]c3ccccc23)C1)c1ccc(F)cc1 | 188 to 190 °C | – | – | –
